± gives the standard deviation of the averaged measurements.
Columns and labels:
ABT-737 = compound: CN(C)CC[C@H](CSc1ccccc1)Nc1ccc(S(=O)(=O)NC(=O)c2ccc(N3CCN(Cc4ccccc4-c4ccc(Cl)cc4)CC3)cc2)cc1[N+](=O)[O-] [ABT-737]; test: surviving fraction relative to DMSO-only wells; higher = less growth inhibition; conditions: exposure time: 5 days
Method in brief: (§1)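 Lines were retained only if, across three screens, replicate Pearson r was >0.7 and median Z' was >0.3. Viability was measured as CellTiter-Glo luminescence and reported as surviving fraction relative to the median of DMSO-only wells. Readings followed 10 minutes at room temperature, after log-phase tumour cells seeded at 250–500 per well in 384-well plates had been exposed, from 24 hours after seeding, continuously for five days to inhibitors at 0.5, 1, 5, 10, 50, 100, 500 and 1000 nM.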

LAPATINIB = compound: CS(=O)(=O)CCNCc1ccc(-c2ccc3ncnc(Nc4ccc(OCc5cccc(F)c5)c(Cl)c4)c3c2)o1 [LAPATINIB]; test: as above; conditions: exposure time: 5 days
Method in brief: as §1

Test System | surviving fraction (ABT-737; 0.5 nM) | surviving fraction (ABT-737; 1 nM) | surviving fraction (ABT-737; 5 nM) | surviving fraction (ABT-737; 10 nM) | surviving fraction (ABT-737; 50 nM) | surviving fraction (ABT-737; 100 nM) | surviving fraction (ABT-737; 500 nM) | surviving fraction (ABT-737; 1000 nM) | surviving fraction (LAPATINIB; 0.5 nM) | surviving fraction (LAPATINIB; 1 nM) | surviving fraction (LAPATINIB; 5 nM) | surviving fraction (LAPATINIB; 10 nM) | surviving fraction (LAPATINIB; 50 nM) | surviving fraction (LAPATINIB; 100 nM) | surviving fraction (LAPATINIB; 500 nM) | surviving fraction (LAPATINIB; 1000 nM)
MDAMB436 BREAST | 0.985 ± 0.085 | 1.09 ± 0.041 | 1.05 ± 0.14 | 0.972 ± 0.16 | 0.998 ± 0.1 | 1.14 ± 0.31 | 0.961 ± 0.17 | 0.962 ± 0.083 | 0.893 ± 0.14 | 0.996 ± 0.13 | 0.834 ± 0.091 | 0.896 ± 0.03 | 1.02 ± 0.072 | 1.03 ± 0.12 | 1.05 ± 0.23 | 1.04 ± 0.083
MDAMB453 BREAST | 1.07 ± 0.046 | 1.08 ± 0.083 | 1.1 ± 0.047 | 1.13 ± 0.067 | 1.09 ± 0.036 | 1.1 ± 0.055 | 1.07 ± 0.057 | 1 ± 0.047 | 1.06 ± 0.024 | 1.04 ± 0.061 | 1.09 ± 0.099 | 1.11 ± 0.12 | 0.993 ± 0.026 | 1.04 ± 0.018 | 0.868 ± 0.043 | 0.752 ± 0.024
MDAMB468 BREAST | 1.14 ± 0.06 | 1.08 ± 0.018 | 1.08 ± 0.037 | 1.11 ± 0.066 | 1.1 ± 0.045 | 1.11 ± 0.11 | 1.08 ± 0.03 | 1.09 ± 0.12 | 1.07 ± 0.019 | 1.01 ± 0.042 | 1.13 ± 0.054 | 1.09 ± 0.08 | 1.086 ± 0.01 | 1.1 ± 0.051 | 0.948 ± 0.043 | 0.785 ± 0.058
MFM223 BREAST | 1.39 ± 0.39 | 1.4 ± 0.37 | 1.36 ± 0.35 | 1.52 ± 0.56 | 1.08 ± 0.091 | 1.05 ± 0.14 | 1.05 ± 0.082 | 1.2 ± 0.054 | 1.18 ± 0.13 | 1.18 ± 0.14 | 1.15 ± 0.027 | 1.13 ± 0.081 | 1.058 ± 0.01 | 1.2 ± 0.034 | 1.02 ± 0.084 | 
MG63 BONE | 1.08 ± 0.034 | 1.07 ± 0.024 | 1.12 ± 0.047 | 1.1 ± 0.05 | 1.11 ± 0.033 | 1.09 ± 0.058 | 1.07 ± 0.016 | 1.06 ± 0.04 | 0.98 ± 0.029 | 1.04 ± 0.027 | 1.06 ± 0.035 | 1.07 ± 0.035 | 1.04 ± 0.039 | 1.08 ± 0.023 | 1.09 ± 0.017 | 1.11 ± 0.038
MHM BONE | 1.03 ± 0.053 | 1.08 ± 0.062 | 1.07 ± 0.045 | 1.1 ± 0.046 | 1.07 ± 0.034 | 1.15 ± 0.013 | 1.09 ± 0.015 | 1.12 ± 0.015 | 0.9907 ± 0.0093 | 1 ± 0.015 | 1.05 ± 0.014 | 1.07 ± 0.037 | 1.02 ± 0.027 | 1.02 ± 0.014 | 0.992 ± 0.033 | 1.01 ± 0.024
NCIH441 LUNG | 1.19 ± 0.027 | 1.22 ± 0.05 | 1.115 ± 0.0076 | 1.11 ± 0.052 | 1.11 ± 0.045 | 1.12 ± 0.077 | 1.11 ± 0.086 | 1.06 ± 0.15 | 1.06 ± 0.071 | 1.07 ± 0.12 | 1.08 ± 0.059 | 1.17 ± 0.067 | 1.03 ± 0.053 | 1.09 ± 0.043 | 1 ± 0.061 | 1.18 ± 0.054
NOS1 BONE | 1.07 ± 0.093 | 1.05 ± 0.085 | 1.32 ± 0.035 | 1.14 ± 0.048 | 1.19 ± 0.092 | 1.14 ± 0.048 | 1.09 ± 0.081 | 1.11 ± 0.17 | 1.16 ± 0.16 | 1.05 ± 0.12 | 1.11 ± 0.069 | 1.12 ± 0.033 | 1.13 ± 0.068 | 1.08 ± 0.13 | 1.03 ± 0.093 | 0.898 ± 0.029
NY BONE | 0.986 ± 0.029 | 1.02 ± 0.032 | 1.09 ± 0.064 | 1.09 ± 0.03 | 1.07 ± 0.012 | 1.071 ± 0.0072 | 0.99 ± 0.017 | 0.957 ± 0.035 | 1.02 ± 0.025 | 1.03 ± 0.042 | 1.05 ± 0.025 | 1.1 ± 0.05 | 1 ± 0.028 | 1.1 ± 0.046 | 0.9837 ± 0.0064 | 1.04 ± 0.027
OS25HAL BONE | 0.984 ± 0.048 | 1.07 ± 0.035 | 0.975 ± 0.028 | 1.02 ± 0.025 | 1.06 ± 0.082 | 1.12 ± 0.042 | 0.983 ± 0.045 | 0.882 ± 0.076 | 1.01 ± 0.018 | 1.06 ± 0.018 | 1.06 ± 0.066 | 1 ± 0.024 | 1.05 ± 0.029 | 1.04 ± 0.0055 | 1.09 ± 0.044 | 1.1 ± 0.053
OSHN BONE | 1.09 ± 0.026 | 1.1 ± 0.018 | 1.08 ± 0.014 | 1.09 ± 0.014 | 1.11 ± 0.028 | 1.11 ± 0.022 | 1.02 ± 0.049 | 0.998 ± 0.035 | 1.03 ± 0.026 | 1.098 ± 0.0061 | 1.09 ± 0.025 | 1.1 ± 0.011 | 1.05 ± 0.02 | 1.08 ± 0.015 | 1.067 ± 0.0071 | 1.1 ± 0.015
PCI30 HEADNECK | 1.12 ± 0.029 | 1.09 ± 0.061 | 1.09 ± 0.096 | 1.07 ± 0.026 | 1.08 ± 0.023 | 1.13 ± 0.11 | 0.919 ± 0.091 | 0.909 ± 0.022 | 1.06 ± 0.033 | 1.05 ± 0.06 | 1.05 ± 0.052 | 1.06 ± 0.084 | 1.14 ± 0.063 | 1.18 ± 0.062 | 1.01 ± 0.069 | 0.989 ± 0.071
RDES SOFT TISSUE | 1.26 ± 0.093 | 1.17 ± 0.053 | 1.13 ± 0.074 | 0.98 ± 0.036 | 0.765 ± 0.083 | 0.576 ± 0.034 | 0.405 ± 0.037 | 0.385 ± 0.058 |  | 1.21 ± 0.12 | 1.14 ± 0.11 | 1.13 ± 0.13 | 1.09 ± 0.053 | 1.19 ± 0.11 | 1.41 ± 0.18 | 1.55 ± 0.19
S68 BREAST | 1.25 ± 0.083 | 1.04 ± 0.045 | 1.04 ± 0.28 | 1.15 ± 0.047 | 1.26 ± 0.41 | 1.14 ± 0.27 | 0.848 ± 0.25 | 0.822 ± 0.14 | 1.12 ± 0.24 | 1.01 ± 0.2 | 1.17 ± 0.11 | 1.26 ± 0.22 | 1.07 ± 0.08 | 1.1 ± 0.33 | 0.71 ± 0.058 | 0.769 ± 0.032
SAOS2 BONE | 1.18 ± 0.037 | 1.18 ± 0.056 | 1.21 ± 0.098 | 1.19 ± 0.082 | 1.27 ± 0.061 | 1.13 ± 0.059 | 1.14 ± 0.12 | 1.08 ± 0.018 | 1.14 ± 0.027 | 1.19 ± 0.066 | 1.24 ± 0.038 | 1.24 ± 0.049 | 1.18 ± 0.065 | 1.24 ± 0.099 | 1.21 ± 0.11 | 1.15 ± 0.22
SCC003 HEADNECK | 1.11 ± 0.067 | 1.17 ± 0.03 | 1.16 ± 0.032 | 1.09 ± 0.021 | 1.15 ± 0.096 | 1.16 ± 0.1 | 1.19 ± 0.049 | 1.09 ± 0.069 | 1.08 ± 0.05 | 1.13 ± 0.054 | 1.06 ± 0.067 | 1.11 ± 0.079 | 0.963 ± 0.011 | 0.964 ± 0.054 | 0.757 ± 0.015 | 0.64 ± 0.069
